# Source: ChEMBL document CHEMBL3098003, “Structure-based design of 2-aminopyridine oxazolidinones as potent and selective tankyrase inhibitors” (ACS Med Chem Lett, 2013)
# Columns and labels:
# [1] = target: T1, Poly [ADP-ribose] polymerase tankyrase-1 (Homo sapiens, UniProt O95271); test: Inhibition of recombinant 6XHis-tagged TNKS1 (1091 to 1325) (unknown origin) after 60 mins by spectrophotometric analysis
# T1 sequence (O95271 whole entry): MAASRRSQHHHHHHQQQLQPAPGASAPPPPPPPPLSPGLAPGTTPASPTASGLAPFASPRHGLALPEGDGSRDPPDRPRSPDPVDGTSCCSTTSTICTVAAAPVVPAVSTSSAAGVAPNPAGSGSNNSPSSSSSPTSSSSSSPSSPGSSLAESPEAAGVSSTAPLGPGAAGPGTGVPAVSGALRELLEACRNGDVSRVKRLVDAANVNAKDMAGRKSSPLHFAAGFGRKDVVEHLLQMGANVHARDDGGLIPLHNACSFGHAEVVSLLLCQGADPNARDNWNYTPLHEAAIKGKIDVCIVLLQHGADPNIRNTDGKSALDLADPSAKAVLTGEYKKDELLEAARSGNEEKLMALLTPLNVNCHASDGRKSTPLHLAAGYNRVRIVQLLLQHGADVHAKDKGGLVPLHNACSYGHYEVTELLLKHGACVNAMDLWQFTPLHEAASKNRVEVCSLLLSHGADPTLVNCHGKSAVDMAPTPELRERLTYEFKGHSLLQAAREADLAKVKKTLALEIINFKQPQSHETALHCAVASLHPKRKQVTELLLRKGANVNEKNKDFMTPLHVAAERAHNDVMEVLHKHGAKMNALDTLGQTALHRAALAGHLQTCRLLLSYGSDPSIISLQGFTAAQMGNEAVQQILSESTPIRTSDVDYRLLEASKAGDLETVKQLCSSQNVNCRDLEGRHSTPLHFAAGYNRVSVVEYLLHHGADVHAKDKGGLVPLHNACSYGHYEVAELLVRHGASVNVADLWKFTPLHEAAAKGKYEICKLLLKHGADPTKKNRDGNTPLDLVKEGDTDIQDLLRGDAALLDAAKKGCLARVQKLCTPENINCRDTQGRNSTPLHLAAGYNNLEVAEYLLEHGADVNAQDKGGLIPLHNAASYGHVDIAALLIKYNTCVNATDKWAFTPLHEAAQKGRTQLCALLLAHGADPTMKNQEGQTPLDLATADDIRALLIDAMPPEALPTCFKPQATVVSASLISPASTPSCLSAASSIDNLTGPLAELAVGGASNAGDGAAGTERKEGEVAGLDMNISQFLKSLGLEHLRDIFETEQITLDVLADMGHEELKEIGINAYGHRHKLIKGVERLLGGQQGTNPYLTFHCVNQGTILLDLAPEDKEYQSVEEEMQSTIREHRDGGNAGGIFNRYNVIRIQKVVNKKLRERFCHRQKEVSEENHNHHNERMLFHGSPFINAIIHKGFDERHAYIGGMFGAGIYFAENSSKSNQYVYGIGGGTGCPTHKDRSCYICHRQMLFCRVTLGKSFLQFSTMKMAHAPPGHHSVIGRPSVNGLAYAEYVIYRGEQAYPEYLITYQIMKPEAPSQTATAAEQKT
# [2] = target: T2, Tankyrase 1/2 (Homo sapiens, UniProt Q9H2K2+O95271); test: Inhibition of tankyrase in human SW480 cells assessed as axin2 accumulation after 24 hrs by Hoechst dye-based assay; format: cell-based
# T2 sequence (Q9H2K2 whole entry): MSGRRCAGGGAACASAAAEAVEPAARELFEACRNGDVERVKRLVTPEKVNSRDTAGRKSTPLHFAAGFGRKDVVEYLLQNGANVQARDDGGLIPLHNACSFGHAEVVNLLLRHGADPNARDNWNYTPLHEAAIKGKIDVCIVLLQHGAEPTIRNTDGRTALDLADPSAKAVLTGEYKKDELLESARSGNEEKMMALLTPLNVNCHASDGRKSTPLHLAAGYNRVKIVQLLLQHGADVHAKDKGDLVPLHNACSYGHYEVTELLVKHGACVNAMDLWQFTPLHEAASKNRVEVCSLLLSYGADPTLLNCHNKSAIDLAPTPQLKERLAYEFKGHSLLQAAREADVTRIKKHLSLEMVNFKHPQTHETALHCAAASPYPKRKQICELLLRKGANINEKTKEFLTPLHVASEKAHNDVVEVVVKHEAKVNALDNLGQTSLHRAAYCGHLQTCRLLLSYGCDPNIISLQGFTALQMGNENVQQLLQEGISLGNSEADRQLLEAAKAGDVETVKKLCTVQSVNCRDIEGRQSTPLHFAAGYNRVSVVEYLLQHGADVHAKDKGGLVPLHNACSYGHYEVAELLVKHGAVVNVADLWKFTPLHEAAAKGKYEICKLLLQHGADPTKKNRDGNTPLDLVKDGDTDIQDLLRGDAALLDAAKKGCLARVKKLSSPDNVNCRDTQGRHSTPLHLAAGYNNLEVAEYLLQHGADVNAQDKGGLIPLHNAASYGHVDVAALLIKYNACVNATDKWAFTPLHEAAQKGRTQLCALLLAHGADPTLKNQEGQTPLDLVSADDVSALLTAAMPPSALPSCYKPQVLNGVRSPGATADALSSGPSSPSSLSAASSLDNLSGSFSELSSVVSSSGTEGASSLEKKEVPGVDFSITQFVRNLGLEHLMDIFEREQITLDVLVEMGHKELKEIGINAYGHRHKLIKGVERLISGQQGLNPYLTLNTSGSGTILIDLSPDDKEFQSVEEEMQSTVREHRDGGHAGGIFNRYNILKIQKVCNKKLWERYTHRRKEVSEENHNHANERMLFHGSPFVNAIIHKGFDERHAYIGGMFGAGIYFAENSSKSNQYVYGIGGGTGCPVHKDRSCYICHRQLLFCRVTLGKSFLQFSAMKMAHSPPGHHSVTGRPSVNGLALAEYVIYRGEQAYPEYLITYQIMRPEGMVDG
# T2 sequence (O95271 whole entry): T1 sequence (O95271 whole entry)
# [3] = target: Poly [ADP-ribose] polymerase 2 (Homo sapiens, UniProt Q9UGN5); test: Inhibition of PARP2 (unknown origin)
# Poly [ADP-ribose] polymerase 2, sequence (Q9UGN5 whole entry): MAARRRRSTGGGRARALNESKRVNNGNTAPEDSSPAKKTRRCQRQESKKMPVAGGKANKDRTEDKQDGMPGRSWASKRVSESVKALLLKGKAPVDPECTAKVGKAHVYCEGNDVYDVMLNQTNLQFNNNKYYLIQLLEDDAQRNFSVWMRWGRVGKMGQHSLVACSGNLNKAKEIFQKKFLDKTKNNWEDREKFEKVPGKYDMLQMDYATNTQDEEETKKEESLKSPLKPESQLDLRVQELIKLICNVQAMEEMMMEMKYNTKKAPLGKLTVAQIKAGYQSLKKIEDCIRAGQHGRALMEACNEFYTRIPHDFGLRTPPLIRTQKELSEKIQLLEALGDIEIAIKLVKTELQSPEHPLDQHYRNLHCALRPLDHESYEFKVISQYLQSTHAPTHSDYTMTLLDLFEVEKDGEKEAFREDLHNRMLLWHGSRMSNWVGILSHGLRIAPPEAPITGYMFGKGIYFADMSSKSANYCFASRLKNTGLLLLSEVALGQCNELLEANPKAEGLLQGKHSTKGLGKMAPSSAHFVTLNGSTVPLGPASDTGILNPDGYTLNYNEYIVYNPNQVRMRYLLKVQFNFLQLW
# [4] = target: T2, Tankyrase 1/2; test: Inhibition of tankyrase in human SW480 cells assessed as degradation of total beta-catenin after 40 to 48 hrs; format: cell-based
# [5] = target: Poly [ADP-ribose] polymerase 1 (Homo sapiens, UniProt P09874); test: Inhibition of PARP1 (unknown origin)
# Poly [ADP-ribose] polymerase 1, sequence (P09874 whole entry): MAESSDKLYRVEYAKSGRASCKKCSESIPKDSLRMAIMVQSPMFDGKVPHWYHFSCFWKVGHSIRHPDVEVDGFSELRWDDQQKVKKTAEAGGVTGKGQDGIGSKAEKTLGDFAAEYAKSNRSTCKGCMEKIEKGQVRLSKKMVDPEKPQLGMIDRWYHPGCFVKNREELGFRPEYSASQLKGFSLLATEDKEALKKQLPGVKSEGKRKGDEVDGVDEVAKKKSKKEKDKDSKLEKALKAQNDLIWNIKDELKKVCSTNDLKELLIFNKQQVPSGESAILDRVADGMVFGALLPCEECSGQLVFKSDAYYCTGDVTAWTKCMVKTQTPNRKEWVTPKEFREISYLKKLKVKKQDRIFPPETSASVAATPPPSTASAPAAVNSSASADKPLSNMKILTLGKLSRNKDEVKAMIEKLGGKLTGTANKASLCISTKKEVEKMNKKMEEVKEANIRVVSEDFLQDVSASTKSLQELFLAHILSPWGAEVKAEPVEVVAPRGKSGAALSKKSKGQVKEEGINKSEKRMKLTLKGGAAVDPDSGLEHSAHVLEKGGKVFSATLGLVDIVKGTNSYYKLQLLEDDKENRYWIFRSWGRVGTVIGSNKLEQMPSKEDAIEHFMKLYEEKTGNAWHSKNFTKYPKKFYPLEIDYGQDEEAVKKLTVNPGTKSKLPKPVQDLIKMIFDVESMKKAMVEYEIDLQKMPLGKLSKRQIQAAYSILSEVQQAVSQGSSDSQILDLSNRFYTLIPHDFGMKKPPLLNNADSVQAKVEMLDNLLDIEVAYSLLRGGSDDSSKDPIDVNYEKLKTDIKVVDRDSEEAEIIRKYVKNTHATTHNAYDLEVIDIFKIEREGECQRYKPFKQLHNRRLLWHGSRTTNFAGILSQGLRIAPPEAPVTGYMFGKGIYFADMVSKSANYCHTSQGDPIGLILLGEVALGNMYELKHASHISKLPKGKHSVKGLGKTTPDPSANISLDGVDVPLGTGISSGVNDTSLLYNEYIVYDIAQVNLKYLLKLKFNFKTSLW
# [6] = target: T2, Tankyrase 1/2; test: Inhibition of tankyrase in human DLD1 cells assessed as inhibition of Wnt gene transcription after 40 to 48 hrs by STF assay; format: cell-based; details: dld-1
SMILES,IC50 [1] [nM],EC50 [2] [nM],IC50 [3] [nM],IC50 [4] [nM],IC50 [5] [nM],IC50 [6] [nM]
CC1(C)OC(=O)N([C@H]2CC[C@H](c3ccc(N)nc3)CC2)[C@H]1c1ccccc1,148,,,,,
CC1(C)OC(=O)N([C@H]2CC[C@H](c3cnc(N)c(C#N)c3)CC2)[C@H]1c1ccccc1,9,474,> 170000,392,> 85000,43
CC1(C)CC(=O)Nc2cc(NC(=O)c3cc(-c4ccc5nc(N)ncc5c4)ccc3F)ccc21,150,,,2000,,
